Measurements from the OPERA property sets (Mansouri et al. 2018).
Where a SMILES comes first, the peptide text is derived from it. [ ]: non-standard residue; d: D form. ξ: configuration not given here. ξW = NC(Cc1c[nH]c2ccccc12)C(=O)O

| SMILES | logP |
| --- | --- |
| COc1cccc(CNc2ncnc3nc[nH]c23)c1 | 2.1 |
| CON(C)C(=O)Nc1ccc(C2CCCCC2)cc1 | 4.08 |
| COC(=O)CNC(=O)Cn1c(C)nc2ccccc2c1=O | 0.4 |
| O=C(Cc1c(Cl)cc(Cl)cc1Cl)Oc1coc(CO)cc1=O | 1.92 |
| c1ccc2c(c1)OCC(C1=NCCN1)O2 (stereo not drawn) | 1.63 |
| Cc1cccc(Nc2ccncc2S(=O)(=O)NC(=NC#N)NC(C)C)c1 | 1.86 |
| CCCCC(C)N=C=S (stereo not drawn) | 3.94 |
| Cc1ccc(C(=O)OCCCn2ccc(=O)c(O)c2C)cc1 | 1.79 |
| COC(=O)c1c(N2CCOCC2)c(-c2ccc(Cl)cc2)cn1C(=O)c1ccccc1 | 5.5 |
| c1cc2cc3ccc4c(c3nc2c2c1NCOC2)COCN4 | 2.17 |
| CN1CCc2ccccc2C1 | 2.14 |
| CN(C)CCCC(c1ccccc1)c1ccccc1 | 4.91 |
| COc1ccc(CCN(C)CCCC(C#N)(c2cc(OC)c(OC)c(OC)c2)C(C)C)cc1OC (stereo not drawn) | 3.71 |
| NC1=NCC(CN2CCC(C(=O)c3ccccc3)CC2)O1 (stereo not drawn) | 1.05 |
| NC1=NCC(COc2ccccc2[N+](=O)[O-])O1 (stereo not drawn) | 0.8 |
| Cc1c(C(=O)O)cccc1[N+](=O)[O-] | 2.16 |
| CCCNc1[nH]cnc2ncnc1-2 | 1.44 |
| CCc1ccc(OCC2CN=C(N)O2)cc1 (stereo not drawn) | 2.27 |
| CCOc1ccc(NC(=O)OC(C)c2ccccc2)cc1OCC (stereo not drawn) | 3.56 |
| CCNC1CCc2c(OC)cccc2C1C (stereo not drawn) | 2.67 |
| CCCCOCCCNc1ncnc2c1ncn2C1OC(CO)C(O)C1O (stereo not drawn) | 1.3 |
| CC(=O)c1ccc2ccc3cccc4ccc1c2c34 | 4.18 |

| SMILES | logP |
| --- | --- |
| CC(C)(O)C1CCC2(C)CCCC(O)(CO)C2C1 (stereo not drawn) | 1.54 |
| CCCC(=NOCC)C1=C(O)CC2(CCC(C)CC2)OC1=O (stereo not drawn) | 4.07 |
| Nc1nnnn1-c1ccc(Cl)cc1Cl | 1.62 |
| CCCc1ccc(CNc2[nH]cnc3ncnc2-3)cc1 | 3.72 |
| CCCOCCCNc1[nH]cnc2ncnc1-2 | 1.74 |
| CCOC(=O)Nc1ccc2cc3ccc4c(c3nc2c1)COC(=O)N4 | 2 |
| CC(C)CC(NC(=O)C(NC(=O)C(CO)NC(=O)C(CC(C)C)NC(=O)CN)C(C)C)C(=O)O (stereo not drawn) (H-GLSVL-OH; configuration not given here) | -1.64 |
| Cc1cc2c(o1)c(C)cc1ccc(=O)oc12 | 2.85 |
| CN(C)C(=O)Nc1cccc(OCc2ccc(Cl)cc2Cl)c1 | 4.1 |
| CNc1ncnc2c1ncn2Cc1ccccc1F | 1.86 |
| Nc1n[n+]([O-])c2ccccc2[n+]1[O-] | -0.3 |
| O=c1cc(CSCCO)occ1O | -0.69 |
| Cn1c([N+](=O)[O-])cnc1C=NNC(N)=S | 0.65 |
| CCC(C)Nc1nc(N)nc(Cl)n1 (stereo not drawn) | 1.86 |
| c1ccc(Nc2ncnc3nc[nH]c23)cc1 | 2.12 |
| C#CCN(N=O)C(=O)NCCCCC(NC(C)=O)C(=O)NCc1ccccc1 (stereo not drawn) | 1.64 |
| NC1=NCC(COc2cccc(C(F)(F)F)c2)O1 (stereo not drawn) | 2.35 |
| c1cc2ccc1CCc1ccc(cc1)CC2 | 4.33 |
| CC(C)CC(NC(=O)C1CCCN1)C(=O)O (stereo not drawn) (H-Pro-Leu-OH; configuration not given here) | -2.41 |
| CC(C)(C)[N+]([O-])=Cc1cc[n+]([O-])cc1 | -1.05 |
| CC(=O)OCCOC(=O)C(C)c1cccc(C(=O)c2ccccc2)c1 (stereo not drawn) | 3.1 |
| Cc1oc2cc3oc(=O)ccc3cc2c1C | 2.93 |

| SMILES | logP |
| --- | --- |
| CC(C)CCNc1ncnc2nc[nH]c12 | 2.51 |
| CC(=O)OCOC(=O)N(C)N=Nc1ccc(C)cc1 | 3.28 |
| O=C(O)CCC(=O)OC1Cc2c(O)cc(O)cc2OC1c1ccc(O)c(O)c1 (stereo not drawn) | 1.41 |
| CCCN(CCCC(NC(C)=O)C(=O)NCc1ccccc1)C(=O)N(CCCl)N=O (stereo not drawn) | 1.57 |
| COc1coc(CSC(=S)N(C)C)cc1=O | 1.14 |
| CC(C)CC(NC(=O)C(NC(=O)C1CCCN1C(=O)C(N)C(C)C)C(C)C)C(=O)O (stereo not drawn) (H-VPVL-OH; configuration not given here) | -1.91 |
| CNC(=O)Oc1ccc2c(c1)CC(c1ccc(OC)cc1)C(OC(C)=O)C(=O)N2CCN(C)C (stereo not drawn) | 2.31 |
| COc1ccc(C2Cc3c(C(=O)OCc4ccccc4)cccc3N(CCN(C)C)C(=O)C2OC(C)=O)cc1 (stereo not drawn) | 5.3 |
| CCCc1nc(NCN2CCCC2=O)nc(N2CCOCC2)n1 | 1.62 |
| CC(C)NCC(O)c1ccc([N+](=O)[O-])cc1 (stereo not drawn) | 1.28 |
| O=C(O)CCCON=C(c1ccccc1)c1cncnc1 | 2.2 |
| COc1cc2ccncc2cc1OC | 1.68 |
| CCOc1cc2ncnc(Nc3cccc(I)c3)c2cc1OCC | 4.62 |
| CNC(=O)Nc1ccc(C(=O)O)cc1 | 1.1 |
| Cc1c(O)c(=O)ccn1CCCOC(=O)c1ccc(O)cc1 | 0.8 |
| COC1CC(OC2C(O)CC(OC3CCC4(C)C(CCC5C4CCC4(C)C(C6=CC(=O)OC6)CCC54O)C3)OC2C)OC(C)C1OC1CC(O)C(O)C(C)O1 (stereo not drawn) | 3.11 |
| COC(=O)C(C)NP(=O)(OCC1C=CC(n2cc(C)c(=O)[nH]c2=O)O1)Oc1cccc(Cl)c1 (stereo not drawn) | 1.42 |
| O=C(NCC(F)(F)F)NS(=O)(=O)c1cnccc1NC1CCCCCCC1 | 4.22 |
| C=CCNc1ncnc2nc[nH]c12 | 1.09 |
| COC(=O)C(C)NP(=O)(OCC1C=CC(n2cc(C)c(=O)[nH]c2=O)O1)Oc1ccc([N+](=O)[O-])cc1 (stereo not drawn) | 0.9 |
| CCNC(=NC#N)NS(=O)(=O)c1cnccc1NC1CCCCC1 | 0.94 |
| NC(Cc1ccccc1)C(=O)NC(Cc1ccccc1)C(=O)O (stereo not drawn) (H-Phe-Phe-OH; configuration not given here) | -0.85 |

| SMILES | logP |
| --- | --- |
| NC1=NCC(CN2CCOCC2)O1 (stereo not drawn) | -0.22 |
| CN(C)c1cc[n+]([O-])cc1 | -0.9 |
| COc1ccc(CNCC(O)CON=C(C2CC2)C2CC2)c(OC)c1 (stereo not drawn) | 2.22 |
| CC(=O)OCCCOC(=O)C(C)c1cccc(C(=O)c2ccccc2)c1 (stereo not drawn) | 3.6 |
| COc1ccc(Br)cc1CNC1CCCNC1c1ccccc1 (stereo not drawn) | 4.2 |
| CCCN(C)CC(=O)Nc1c(C)cccc1C | 2.28 |
| COc1ccccc1CNC1CCCNC1c1ccccc1 (stereo not drawn) | 3.1 |
| CCOCCCNc1[nH]cnc2ncnc1-2 | 1.15 |
| CCN(CC)C1CCc2c(OC)cccc2C1C (stereo not drawn) | 3.47 |
| CC(C)CC(NC(=O)CN)C(=O)NC(CC(C)C)C(=O)NCC(=O)NC(Cc1ccccc1)C(=O)O (stereo not drawn) (H-GLLGF-OH; configuration not given here) | -0.18 |
| Cc1oc2ccc3c(C)cc(=O)oc3c2c1C | 3.28 |
| COC1Cc2c(O)cc(O)cc2OC1c1ccc(O)c(O)c1 (stereo not drawn) | 1 |
| C=C1C=CCC(C)=CCC1 | 4.17 |
| O[C@@H](c1cc(C(F)(F)F)nc2c(C(F)(F)F)cccc12)[C@H]1CCCCN1 | 4.49 |
| CC(=O)NC(CCCCN(Cc1ccccc1)C(=O)N(CCCl)N=O)C(=O)NCc1ccccc1 (stereo not drawn) | 2.46 |
| CC1CCC(C)N1C(=O)Nc1ccccc1 (stereo not drawn) | 2.33 |
| CCOCCOCCOc1ccc(NC(=O)NC23CC4CC(CC(C4)C2)C3)cc1 | 3.9 |
| CCC(C)C(NC(=O)C(N)CC(C)C)C(=O)NC(C(=O)NCC(=O)NC(C)C(=O)O)C(C)CC (stereo not drawn) (H-LIIGA-OH; configuration not given here) | -1.65 |
| CC(C)CC(N)C(=O)NC(CC(C)C)C(=O)NC(C(=O)NC(Cc1ccccc1)C(=O)O)C(C)C (stereo not drawn) (H-LLVF-OH; configuration not given here) | -0.25 |
| NCC(=O)NC(Cc1c[nH]c2ccccc12)C(N)=O (stereo not drawn) (H-Gly-[ξW]-NH2) | -0.48 |
| Cc1cc(=O)c(O)c(CNC(=O)C(C)C)n1C | -0.35 |
| COC(=O)C(C)=CC1C(C(=O)OCc2cccc(C#N)c2)C1(C)C (stereo not drawn) | 3.83 |
